Results from ChEMBL document CHEMBL1201862, “PubChem BioAssay data set” (2004).
Calls of active or inactive are those of the source.

Assays:
[1] = inhibitors of firefly luciferase expression or activity, dose response, H4 neuroglioma cells, luminescence (AID 1990); format: functional, cell-based
[2] = target: T1, Sentrin-specific protease 8 (Homo sapiens, UniProt Q96LD8); format: functional
T1 sequence (Q96LD8 whole entry): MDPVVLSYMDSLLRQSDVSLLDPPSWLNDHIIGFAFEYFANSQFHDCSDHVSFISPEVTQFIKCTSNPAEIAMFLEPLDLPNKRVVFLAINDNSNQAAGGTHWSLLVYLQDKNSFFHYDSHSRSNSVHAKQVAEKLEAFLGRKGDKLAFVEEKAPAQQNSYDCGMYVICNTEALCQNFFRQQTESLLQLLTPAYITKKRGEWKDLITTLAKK

[3] = target: T1, Sentrin-specific protease 8; format: functional; remark: listed apart in the source
[4] = inhibitors of SNCA 5'UTR-driven reporter translation, confirmation, H4 neuroglioma cells, luminescence (AID 1988); format: functional, cell-based
[5] = Luminescence Cell-Based Dose Response HTS to Identify Inhibitors of 5'UTR Stem-Loop Driven Prion Protein mRNA Translation in H4 Neuroglioblastoma Cells. [Related pubchem assays: 1827 (Project Summary), 1813 (Primary HTS)]; format: functional
[6] = target: T2, Apoptotic protease-activating factor 1 (Homo sapiens, UniProt O14727); format: functional
T2 sequence (O14727 whole entry): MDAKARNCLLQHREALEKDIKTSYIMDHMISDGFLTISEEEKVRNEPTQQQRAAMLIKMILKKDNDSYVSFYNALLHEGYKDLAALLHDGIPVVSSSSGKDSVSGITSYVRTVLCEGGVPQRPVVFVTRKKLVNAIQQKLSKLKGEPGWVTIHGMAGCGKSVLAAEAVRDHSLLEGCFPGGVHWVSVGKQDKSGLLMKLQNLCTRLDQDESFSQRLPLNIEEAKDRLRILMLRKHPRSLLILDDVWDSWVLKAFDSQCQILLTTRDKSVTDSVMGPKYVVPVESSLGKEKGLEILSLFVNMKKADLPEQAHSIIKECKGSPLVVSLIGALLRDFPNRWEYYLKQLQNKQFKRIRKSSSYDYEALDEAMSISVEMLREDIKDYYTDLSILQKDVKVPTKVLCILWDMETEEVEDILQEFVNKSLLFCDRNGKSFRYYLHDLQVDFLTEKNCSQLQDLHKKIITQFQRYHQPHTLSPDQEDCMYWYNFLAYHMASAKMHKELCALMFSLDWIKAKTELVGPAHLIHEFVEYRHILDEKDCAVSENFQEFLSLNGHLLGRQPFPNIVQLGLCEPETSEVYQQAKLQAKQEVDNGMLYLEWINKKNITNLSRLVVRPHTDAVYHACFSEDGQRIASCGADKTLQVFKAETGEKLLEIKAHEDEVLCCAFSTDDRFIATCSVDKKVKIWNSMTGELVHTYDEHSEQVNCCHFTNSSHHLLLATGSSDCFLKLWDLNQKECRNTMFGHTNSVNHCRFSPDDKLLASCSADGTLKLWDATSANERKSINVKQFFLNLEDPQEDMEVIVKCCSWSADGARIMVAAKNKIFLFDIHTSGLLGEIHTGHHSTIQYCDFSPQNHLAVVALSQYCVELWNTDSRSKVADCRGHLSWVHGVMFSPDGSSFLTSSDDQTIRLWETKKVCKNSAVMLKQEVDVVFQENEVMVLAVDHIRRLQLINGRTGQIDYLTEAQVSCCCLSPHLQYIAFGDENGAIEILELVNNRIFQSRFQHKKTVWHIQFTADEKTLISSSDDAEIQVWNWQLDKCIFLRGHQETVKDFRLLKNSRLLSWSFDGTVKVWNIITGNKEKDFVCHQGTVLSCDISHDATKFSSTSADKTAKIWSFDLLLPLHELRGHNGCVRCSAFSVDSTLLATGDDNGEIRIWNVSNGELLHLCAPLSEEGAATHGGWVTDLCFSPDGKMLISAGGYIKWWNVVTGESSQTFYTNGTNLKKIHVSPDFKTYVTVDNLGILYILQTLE

[7] = target: T3, Voltage-gated N-type calcium channel alpha-1B subunit/Amyloid beta A4 precursor protein-binding family A member 1 (Homo sapiens, UniProt Q00975+Q02410); format: protein assay
[8] = target: T3, Voltage-gated N-type calcium channel alpha-1B subunit/Amyloid beta A4 precursor protein-binding family A member 1; format: protein assay; remark: listed apart in the source
[9] = Artemis endonuclease inhibitor potency, dose response, biochemical, fluorescence intensity (AID 720701); format: functional;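 note: Artemis endonuclease enzyme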
[10] = target: 5-hydroxytryptamine receptor 2A (Mus musculus, UniProt P35363); format: functional, cell-based;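 note: CHO-K1 cells with tagged receptor and beta-arrestin; agonist potency measured as compound-induced activation of the receptor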
[11] = target: Mu-type opioid receptor (Homo sapiens, UniProt P35372); format: functional, cell-based;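 note: U2OS cells with beta-arrestin recruitment to OPRM1 by beta-gal complementation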
[12] = system: HeLa; test: HeLa cell cytotoxicity, dose response, cytotoxicity control, ATP luminescence, cherry-pick samples (AID 687004); format: functional, cell-based; settings: Homo sapiens
[13] = system: HEK293; test: HEK293T cell cytotoxicity, dose response, cytotoxicity control, ATP luminescence, cherry-pick samples (AID 687005); format: functional, cell-based; settings: Homo sapiens;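 note: cells exposed to compound for 48 hours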
[14] = HEK293 Cytotoxicity Assay Measured in Cell-Based System Using Plate Reader - 7071-01_Inhibitor_Dose_CherryPick_Activity_Set2.; format: functional
[15] = target: T4, Heat shock factor protein 1 (Mus musculus, UniProt P38532); test: HSF1 potentiators in luciferase reporter cells, confirmation, cell-based, NIH3T3, luminescence, dose retest (AID 435004); format: functional;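 note: stress induced by proteasome inhibitor MG132 added 30 min after compound; luciferase reporter driven by HSF1 response element in NIH3T3 cells; actives raise luminescence as potentiators of the MG132 stress response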
T4 sequence (P38532 whole entry): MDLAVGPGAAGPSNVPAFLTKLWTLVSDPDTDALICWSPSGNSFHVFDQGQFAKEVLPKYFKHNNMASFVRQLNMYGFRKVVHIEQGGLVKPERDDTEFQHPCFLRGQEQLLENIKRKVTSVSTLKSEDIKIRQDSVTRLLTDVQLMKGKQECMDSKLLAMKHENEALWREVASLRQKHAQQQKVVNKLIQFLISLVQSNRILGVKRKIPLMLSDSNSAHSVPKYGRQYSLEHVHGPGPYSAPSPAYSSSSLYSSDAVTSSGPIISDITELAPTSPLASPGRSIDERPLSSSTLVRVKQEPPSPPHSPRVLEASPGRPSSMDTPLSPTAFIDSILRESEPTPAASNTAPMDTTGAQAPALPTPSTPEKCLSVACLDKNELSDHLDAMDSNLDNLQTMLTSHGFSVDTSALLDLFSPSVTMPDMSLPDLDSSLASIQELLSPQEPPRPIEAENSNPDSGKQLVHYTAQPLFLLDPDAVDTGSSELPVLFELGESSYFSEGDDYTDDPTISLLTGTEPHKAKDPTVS

[16] = inhibitors of clade B AD8 Env fusion, dose response, cell-based, cherry-pick (AID 652062); format: functional;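 note: luciferase signal from cell-cell fusion driven by HIV-1 clade B AD8 Env; potency is for inhibitors of fusion seen as a drop in luminescence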
[17] = off-target signal loss in HeLa-CEM21 co-culture – HeLa F-luc CTL cells, cherry-picked, counter-screen for HIV-1 Env fusion inhibitor project, dose response (AID 652040); format: functional, cell-based;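 note: potency for signal decrease marking cytotoxic or nonspecific inhibition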
[18] = ZM109 Env clade C HIV-1 fusion inhibitors, dose response, HeLa effector, CEM target cells, luciferase, cherry-pick (AID 652058); format: functional, cell-based
[19] = inhibitors of HIV Env-driven cell fusion, dose response, cherry-pick (AID 652057); format: functional, cell-based
[20] = target: NAD-dependent protein deacylase sirtuin-5, mitochondrial (Homo sapiens, UniProt Q9NXA8); test: SIRT5 desuccinylase inhibitors, dose response, biochemical, fluorescence imaging, cherry-pick, set 5 (AID 720591);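 note: desuccinylation of succinyl peptide AMC substrate read as fluorescence after trypsin release; potency of inhibitors that lower fluorescence and may act on trypsin instead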
[21] = HEK293 cell cytotoxicity, dose response, cytotoxicity control, plate reader, cherry-picked samples (AID 743446); format: functional, cell-based
[22] = MC4R antagonists, dose response, counter-screen for LGR2 antagonist project, cell-based, plate reader, cherry pick (AID 743444); format: functional;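 note: transfected HEK 293 cells stimulated with alpha-MSH peptide; potency of inhibitors of the alpha-MSH evoked signal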
[23] = A549 cell cytotoxicity, dose response, cytotoxicity control, plate reader, cherry-pick, antagonist series (AID 743412); format: functional, cell-based
[24] = system: HEK293; test: inhibitors of LMP1-driven NF-kB reporter, dose response, cell-based, HEK293, luciferase, cherry-pick (AID 588343); format: functional; settings: Homo sapiens
[25] = LGR2 antagonists, dose response, cell-based, HEK293, CRE-luciferase reporter, cherry pick, set 2 (AID 743343); format: functional;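 note: transfected cells were stimulated with diluted bursicon conditioned medium after compound addition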
[26] = target: 72 kDa type IV collagenase (Homo sapiens, UniProt P08253); test: Dose Response validation of uHTS RPN11 inhibitor hits using a MMP-2 Fluorescence assay.; format: functional
[27] = target: 26S proteasome non-ATPase regulatory subunit 14 (Homo sapiens, UniProt O00487); test: inhibition of proteasome subunit RPN11 – biochemical, fluorescence polarization, uHTS hits, confirmation (AID 602368); format: functional
[28] = target: Prothrombin (Bos taurus, UniProt P00735); test: thrombin inhibition, dose response, biochemical, fluorescence polarization, uHTS hits (AID 602369); format: functional
[29] = Luminescence Cell-Based Dose Retest to Confirm Inhibitors of Cancer Stem Cells. [Related pubchem assays (depositor defined):AID2717, AID2721]; format: functional, Homo sapiens; settings: Homo sapiens
[30] = system: Streptococcus; test: Group A Streptococcus viability loss, dose response, counter-screen for streptokinase expression inhibitor project, luminescence, BacTiterGlo (AID 1915); format: functional, organism-based;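 note: potency for reduction of bacterial viability or growth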
[31] = system: Streptococcus sp. 'group A'; test: growth inhibition of control SK(-) GAS strain, dose response, counter-screen for streptokinase expression inhibitor project, luminescence, kanamycin, BacTiterGlo, confirmation (AID 1900); format: functional, organism-based

Sequence of Mu-type opioid receptor (P35372 whole entry): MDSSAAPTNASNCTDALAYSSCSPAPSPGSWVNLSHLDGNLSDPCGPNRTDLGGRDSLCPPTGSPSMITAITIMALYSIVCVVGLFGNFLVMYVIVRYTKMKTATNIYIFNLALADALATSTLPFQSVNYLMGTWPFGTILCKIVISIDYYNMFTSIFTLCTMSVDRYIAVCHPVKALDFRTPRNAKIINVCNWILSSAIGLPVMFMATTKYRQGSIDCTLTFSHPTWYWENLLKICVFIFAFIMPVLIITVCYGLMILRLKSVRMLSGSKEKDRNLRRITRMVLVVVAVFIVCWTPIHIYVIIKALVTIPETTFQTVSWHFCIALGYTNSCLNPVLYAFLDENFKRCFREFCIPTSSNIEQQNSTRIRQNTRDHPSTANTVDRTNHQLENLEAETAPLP
Sequence of 5-hydroxytryptamine receptor 2A (P35363 whole entry): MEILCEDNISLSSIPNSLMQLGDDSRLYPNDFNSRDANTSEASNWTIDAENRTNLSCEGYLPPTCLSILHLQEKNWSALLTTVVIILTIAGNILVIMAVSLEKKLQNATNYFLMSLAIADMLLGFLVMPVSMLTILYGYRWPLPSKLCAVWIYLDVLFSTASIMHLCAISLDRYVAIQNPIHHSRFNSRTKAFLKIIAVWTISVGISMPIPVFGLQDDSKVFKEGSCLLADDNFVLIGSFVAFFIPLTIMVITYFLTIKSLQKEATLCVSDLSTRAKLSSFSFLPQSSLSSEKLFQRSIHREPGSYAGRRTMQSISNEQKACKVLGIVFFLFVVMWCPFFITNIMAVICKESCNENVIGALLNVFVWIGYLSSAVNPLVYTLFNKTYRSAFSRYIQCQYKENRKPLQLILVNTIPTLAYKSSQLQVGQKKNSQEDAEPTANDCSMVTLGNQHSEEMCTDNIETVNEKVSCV
Sequence of NAD-dependent protein deacylase sirtuin-5, mitochondrial (Q9NXA8 whole entry): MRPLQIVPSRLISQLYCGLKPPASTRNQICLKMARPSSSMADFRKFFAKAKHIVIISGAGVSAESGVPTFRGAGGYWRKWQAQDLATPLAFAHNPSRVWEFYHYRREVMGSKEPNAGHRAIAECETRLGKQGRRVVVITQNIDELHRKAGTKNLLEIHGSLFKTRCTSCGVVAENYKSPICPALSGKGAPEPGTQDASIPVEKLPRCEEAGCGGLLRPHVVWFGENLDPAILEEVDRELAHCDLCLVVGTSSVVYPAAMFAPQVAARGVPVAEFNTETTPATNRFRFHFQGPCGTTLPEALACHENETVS
Sequence of 72 kDa type IV collagenase (P08253 whole entry): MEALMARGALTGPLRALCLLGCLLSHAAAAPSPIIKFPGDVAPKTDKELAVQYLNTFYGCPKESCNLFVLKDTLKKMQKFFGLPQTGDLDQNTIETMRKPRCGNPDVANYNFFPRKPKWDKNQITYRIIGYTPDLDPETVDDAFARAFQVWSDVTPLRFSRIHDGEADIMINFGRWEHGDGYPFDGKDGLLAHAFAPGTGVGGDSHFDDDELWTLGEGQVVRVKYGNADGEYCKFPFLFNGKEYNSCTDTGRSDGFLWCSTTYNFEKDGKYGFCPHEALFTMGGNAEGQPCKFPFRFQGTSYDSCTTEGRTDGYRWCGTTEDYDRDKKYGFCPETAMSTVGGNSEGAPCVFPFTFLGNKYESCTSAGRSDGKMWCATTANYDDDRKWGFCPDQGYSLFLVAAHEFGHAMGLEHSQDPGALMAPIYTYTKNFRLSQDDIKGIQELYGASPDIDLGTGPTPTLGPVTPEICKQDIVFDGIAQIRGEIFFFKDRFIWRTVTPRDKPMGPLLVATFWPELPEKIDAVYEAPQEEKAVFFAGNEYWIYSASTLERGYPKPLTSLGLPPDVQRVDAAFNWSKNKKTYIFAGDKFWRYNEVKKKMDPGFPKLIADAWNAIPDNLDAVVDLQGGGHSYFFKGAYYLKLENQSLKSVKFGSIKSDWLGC
Sequence of 26S proteasome non-ATPase regulatory subunit 14 (O00487 whole entry): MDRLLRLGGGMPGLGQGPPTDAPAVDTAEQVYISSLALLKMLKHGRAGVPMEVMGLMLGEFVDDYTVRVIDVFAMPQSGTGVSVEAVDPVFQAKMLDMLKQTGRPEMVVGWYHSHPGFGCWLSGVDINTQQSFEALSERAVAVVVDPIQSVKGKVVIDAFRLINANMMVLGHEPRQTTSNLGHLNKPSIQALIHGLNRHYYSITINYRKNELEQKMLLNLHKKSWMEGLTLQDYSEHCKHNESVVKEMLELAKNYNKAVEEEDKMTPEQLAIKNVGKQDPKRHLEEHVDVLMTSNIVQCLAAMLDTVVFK

CCOC(=O)c1nn(-c2ccc(C)c(C)c2)c(=O)c2c(N)scc12
EC50 [1]: 13.8 µM (active) | IC50 [2]: 5.03 µM (active) | IC50 [3]: 5.63 µM (active) | EC50 [4]: > 120 µM (not active) | EC50 [5]: > 120 µM (not active) | IC50 [6]: 42.2 µM (active) | IC50 [7]: 9.97 µM (active) | IC50 [8]: > 50 µM (inactive)

O=C(N/N=C/c1cccs1)c1cc(-c2ccc3ccccc3c2)[nH]n1
IC50 [9]: > 20 µM (inactive)

COc1ccc2ccccc2c1CN1CCN(C(=O)c2ccco2)CC1
EC50 [10]: 1.77 µM (active) | EC50 [11]: 92.5 µM (inactive)

C[C@@H]1CN([C@H](C)CO)C(=O)c2cc(NC(=O)Nc3cccc4ccccc34)ccc2O[C@@H]1CN(C)C(=O)Nc1ccccc1
AC50 [12]: 22.8 µM (active)

O=C(Nc1cccc(C(F)(F)F)c1)c1ccc2nc(-c3ccco3)c(-c3ccco3)nc2c1
IC50 [9]: > 20 µM (inactive) | IC50 [6]: 43.9 µM (active)

C/C=C/c1ccc([C@@H]2[C@H]3CN(C(=O)Nc4ccc(OC)cc4)CCCCN3[C@H]2CO)cc1
AC50 [13]: 24.4 µM (active) | AC50 [14]: 24.4 µM (active) | AC50 [12]: > 52 µM (inactive)

CC(=O)C1=C(C)NC2(O)c3ccccc3C(=O)C12O (configuration not stated)
EC50 [15]: > 260 µM (inactive) | IC50 [2]: 11.1 µM (active) | IC50 [3]: 22.4 µM (active)

Cc1cc(N2C(=O)Cc3ccccc3C2=O)ccc1C(C)C
IC50 [2]: > 100 µM (inactive) | IC50 [3]: 4.5 µM (active)

O=C(NC12CC3CC(CC(C3)C1)C2)OCCNC1CCCCC1
AC50 [16]: 7.98 µM (active) | AC50 [17]: 4.34 µM (active) | AC50 [18]: 6.43 µM (active) | AC50 [19]: 2.91 µM (active)

Cc1c(C(=O)OCC(O)=C(C#N)c2nc3ccccc3[nH]2)oc2ccc(Br)cc12
AC50 [20]: > 30 µM (inactive)

Cc1ccc2c(c1)c1c3n2CCN(CCC#N)C3CCC1 (configuration not stated)
AC50 [17]: 1.89 µM (active) | AC50 [19]: 12.9 µM (active)

CCCCC(=O)Nc1ccc(N2CCCC2)cc1
IC50 [9]: > 20 µM (inactive)

COc1ccc(CN2CCN(C(=O)c3ccco3)CC2)cc1OCc1ccccc1
EC50 [10]: 1.48 µM (active) | EC50 [11]: 92.5 µM (inactive)

Cc1ccc(C(=O)Nc2ccc3ncccc3c2)cc1
AC50 [13]: 20.5 µM (active) | AC50 [14]: 20.5 µM (active) | AC50 [12]: > 52 µM (inactive) | AC50 [21]: > 52 µM (inactive) | AC50 [22]: 3.88 µM (active) | AC50 [23]: > 52 µM (inactive) | AC50 [24]: 1.6 µM (active) | AC50 [25]: 1.96 µM (active)

Cc1[nH]c2ccccc2c1/C=C/C(=O)c1ccncc1
IC50 [26]: > 100 µM (inactive) | IC50 [27]: 38.8 µM (active) | IC50 [28]: 48.4 µM (active)

O=C(NCCO)Nc1ccc(Cl)cc1
AC50 [20]: > 30 µM (inactive)

CC(C)NC(=O)Nc1ccc2c(c1)C(=O)N([C@@H](C)CO)C[C@@H](C)[C@@H](CN(C)S(=O)(=O)c1ccc(Cl)cc1)OCCCC[C@@H](C)O2
AC50 [13]: 20.6 µM (active) | AC50 [14]: 20.6 µM (active)

Cc1ccc(S(=O)(=O)Nc2ccc3c(c2)CC(=O)N([C@H](C)CO)C[C@H](C)[C@H](CN(C)Cc2ccc(Cl)c(Cl)c2)O3)cc1
AC50 [21]: > 47 µM (inactive) | AC50 [22]: 32.4 µM (active) | AC50 [23]: 24.7 µM (active)

O=C(CSc1nc(O)c2c(C(F)(F)F)cc(-c3cccs3)nc2n1)Nc1ccc(F)c(F)c1
IC50 [26]: > 100 µM (inactive) | IC50 [27]: 42.7 µM (active) | AC50 [29]: 1.27 µM (active) | EC50 [30]: 2.58 µM (active) | EC50 [31]: 1.12 µM (active) | IC50 [28]: 79.4 µM (active)

CCn1c(N2CCN(S(=O)(=O)c3ccc(OC)cc3)CC2)nc2ccccc21
EC50 [10]: 30 µM (inactive) | EC50 [11]: 92.5 µM (inactive)
